# Source: paper PMC6385203, “Mutations in the palm domain disrupt modulation of acid-sensing ion channel 1a currents by neuropeptides” (Scientific Reports, 2019)
# Peptide text beside a SMILES is read from it.
# Target: T1, ASIC1a N416C (Homo sapiens, UniProt P78348, N416C)
# T1 construct: expressed in transfected cells; host or cells: Xenopus laevis oocytes injected with cRNA
# T1 sequence (P78348 1-528 N416C): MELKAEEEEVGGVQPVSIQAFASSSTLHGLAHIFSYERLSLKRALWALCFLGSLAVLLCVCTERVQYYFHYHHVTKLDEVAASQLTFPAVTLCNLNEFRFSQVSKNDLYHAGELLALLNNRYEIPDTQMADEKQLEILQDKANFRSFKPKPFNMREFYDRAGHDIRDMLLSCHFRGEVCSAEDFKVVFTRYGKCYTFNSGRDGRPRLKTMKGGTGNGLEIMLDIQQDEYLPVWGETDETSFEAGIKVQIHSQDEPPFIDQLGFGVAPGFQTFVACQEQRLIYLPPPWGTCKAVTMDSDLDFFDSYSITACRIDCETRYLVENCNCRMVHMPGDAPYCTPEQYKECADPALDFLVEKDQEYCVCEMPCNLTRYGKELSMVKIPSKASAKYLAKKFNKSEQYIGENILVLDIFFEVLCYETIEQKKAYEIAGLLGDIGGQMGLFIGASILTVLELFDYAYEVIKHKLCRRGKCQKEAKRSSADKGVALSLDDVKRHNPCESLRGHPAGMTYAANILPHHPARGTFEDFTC
# Assay: Isust/Ipeak, TEVC in Xenopus oocytes
# Type: cell-based
# Conditions: pH5, n = 6–7, mean ± SEM, read-out: EC50 of FRRFa (Isust/Ipeak)
# From the text: To test the docking predictions, Cys mutants of palm and other proximal residues predicted to interact with the peptide were made. Since most of these residues are large and hydrophilic, the mutation to Cys changed the side chain properties substantially. Therefore, and because MTSET modification of many palm residues leads to currents with a large sustained component[22] that may render the measurement of FRRFa effects difficult, we exposed only the Cys mutants of hydrophobic residues (I307C and V414C) to 1 mM MTSET prior to the experiments with FRRFa. Asp212 was mutated to Gly (and not Cys), since we have previously observed that this residue is very sensitive to mutation, and that it is in most ASIC1a orthologs and even in several human ASIC1a clones a Gly. […] Due to the extremely small FRRFa-induced Isust/Ipeak ratio changes it was not possible to determine the EC50 of FRRFa on these mutants. To learn more about the nature of the Isust/Ipeak ratio increase by the N416C mutation, we measured the EC50 of FRRFa, which was 6 ± 2 μM (Fig. 6e, n = 6–7). […]
# Electrophysiological measurements were performed 1–2 days after cRNA injection. Ion currents were recorded using two-electrode voltage-clamp at a holding potential of −60 mV with a Dagan TEV-200 amplifier (Minneapolis, MN). […] The amplitude of the sustained current was measured in the last two seconds of the pH5 perfusion. […]
compound,measurement,value
"N=C(N)NCCC[C@H](NC(=O)[C@H](CCCNC(=N)N)NC(=O)[C@@H](N)Cc1ccccc1)C(=O)N[C@@H](Cc1ccccc1)C(N)=O [FRRFa, Phe-Arg-Arg-Phe-amide] (H-FRRF-NH2)",EC50,6 ± 2 µM
